Reference: PubChem BioAssay AID1259407 (Chemical Carcinogenesis Research Information System (CCRIS), 2018)
The source made the active and inactive calls. How the calls were made is not given here.

Test system: CCRIS mutagenicity, Ames/micronucleus/aberration tests
Assay: CCRIS mutagenicity studies
[1] = Test System: AMES SALMONELLA TYPHIMURIUM, Strain/Indicator: TA98, Metabolic Activation: NONE, Method: PREINCUBATION
[2] = Test System: AMES SALMONELLA TYPHIMURIUM, Strain/Indicator: TA100, Metabolic Activation: NONE, Method: PREINCUBATION
[3] = Test System: AMES SALMONELLA TYPHIMURIUM, Strain/Indicator: TA1537, Metabolic Activation: NONE, Method: PREINCUBATION
[4] = Test System: AMES SALMONELLA TYPHIMURIUM, Strain/Indicator: TA100, Metabolic Activation: NONE, Method: STANDARD PLATE
[5] = Test System: AMES SALMONELLA TYPHIMURIUM, Strain/Indicator: TA100, Metabolic Activation: RAT, LIVER, S-9, AROCLOR 1254, Method: STANDARD PLATE
[6] = Test System: AMES SALMONELLA TYPHIMURIUM, Strain/Indicator: TA98, Metabolic Activation: NONE, Method: STANDARD PLATE
[7] = Test System: AMES SALMONELLA TYPHIMURIUM, Strain/Indicator: TA1537, Metabolic Activation: NONE, Method: STANDARD PLATE
[8] = Test System: AMES SALMONELLA TYPHIMURIUM, Strain/Indicator: TA97, Metabolic Activation: NONE, Method: PREINCUBATION

SMILES: B#B
- mutagenic call (Test System: AMES SALMONELLA TYPHIMURIUM, Strain/Indicator: TA98, Metabolic Activation: HAMSTER, LIVER, S-9, AROCLOR 1254 (10%), Method: PREINCUBATION): inactive; negative
- mutagenic call (Test System: AMES SALMONELLA TYPHIMURIUM, Strain/Indicator: TA98, Metabolic Activation: NONE, Method: GAS EXPOSURE): active; positive
- mutagenic call [1]: inactive; negative
- mutagenic call (Test System: AMES SALMONELLA TYPHIMURIUM, Strain/Indicator: TA98, Metabolic Activation: RAT LIVER S-9, PHENOBARBITAL AND BETA-NAPHTHOFLAVONE, Method: GAS EXPOSURE): active; positive
- mutagenic call (Test System: AMES SALMONELLA TYPHIMURIUM, Strain/Indicator: TA98, Metabolic Activation: RAT, LIVER, S-9, AROCLOR 1254 (10%), Method: PREINCUBATION): inactive; negative
- mutagenic call (Test System: AMES SALMONELLA TYPHIMURIUM, Strain/Indicator: TA98, Metabolic Activation: RAT, LIVER, S-9, PHENOBARBITAL AND 5,6-BENZOFLAVONE, Method: GAS EXPOSURE): active; positive
- mutagenic call (Test System: AMES SALMONELLA TYPHIMURIUM, Strain/Indicator: TA100, Metabolic Activation: HAMSTER, LIVER, S-9, AROCLOR 1254 (10%), Method: PREINCUBATION): inactive; negative
- mutagenic call [2]: inactive; negative
- mutagenic call (Test System: AMES SALMONELLA TYPHIMURIUM, Strain/Indicator: TA100, Metabolic Activation: RAT LIVER S-9, PHENOBARBITAL AND BETA-NAPHTHOFLAVONE, Method: GAS EXPOSURE): active; positive
- mutagenic call (Test System: AMES SALMONELLA TYPHIMURIUM, Strain/Indicator: TA100, Metabolic Activation: RAT, LIVER, S-9, AROCLOR 1254 (10%), Method: PREINCUBATION): inactive; negative
- mutagenic call (Test System: AMES SALMONELLA TYPHIMURIUM, Strain/Indicator: TA100, Metabolic Activation: RAT, LIVER, S-9, PHENOBARBITAL AND 5,6-BENZOFLAVONE, Method: GAS EXPOSURE): active; positive
- mutagenic call (Test System: AMES SALMONELLA TYPHIMURIUM, Strain/Indicator: TA1535, Metabolic Activation: HAMSTER, LIVER, S-9, AROCLOR 1254 (10%), Method: PREINCUBATION): inactive; negative
- mutagenic call (Test System: AMES SALMONELLA TYPHIMURIUM, Strain/Indicator: TA1535, Metabolic Activation: NONE, Method: GAS EXPOSURE): inactive; negative
- mutagenic call (Test System: AMES SALMONELLA TYPHIMURIUM, Strain/Indicator: TA1535, Metabolic Activation: NONE, Method: PREINCUBATION): inactive; negative
- mutagenic call (Test System: AMES SALMONELLA TYPHIMURIUM, Strain/Indicator: TA1535, Metabolic Activation: RAT LIVER S-9, PHENOBARBITAL AND BETA-NAPHTHOFLAVONE, Method: GAS EXPOSURE): inactive; negative
- mutagenic call (Test System: AMES SALMONELLA TYPHIMURIUM, Strain/Indicator: TA1535, Metabolic Activation: RAT, LIVER, S-9, AROCLOR 1254 (10%), Method: PREINCUBATION): inactive; negative
- mutagenic call (Test System: AMES SALMONELLA TYPHIMURIUM, Strain/Indicator: TA1535, Metabolic Activation: RAT, LIVER, S-9, PHENOBARBITAL AND 5,6-BENZOFLAVONE, Method: GAS EXPOSURE): inactive; negative
- mutagenic call (Test System: AMES SALMONELLA TYPHIMURIUM, Strain/Indicator: TA1537, Metabolic Activation: HAMSTER, LIVER, S-9, AROCLOR 1254 (10%), Method: PREINCUBATION): inactive; negative
- mutagenic call (Test System: AMES SALMONELLA TYPHIMURIUM, Strain/Indicator: TA1537, Metabolic Activation: NONE, Method: GAS EXPOSURE): inactive; negative
- mutagenic call [3]: inactive; negative
- mutagenic call (Test System: AMES SALMONELLA TYPHIMURIUM, Strain/Indicator: TA1537, Metabolic Activation: RAT LIVER S-9, PHENOBARBITAL AND BETA-NAPHTHOFLAVONE, Method: GAS EXPOSURE): inactive; negative
- mutagenic call (Test System: AMES SALMONELLA TYPHIMURIUM, Strain/Indicator: TA1537, Metabolic Activation: RAT, LIVER, S-9, AROCLOR 1254 (10%), Method: PREINCUBATION): inactive; negative
- mutagenic call (Test System: AMES SALMONELLA TYPHIMURIUM, Strain/Indicator: TA1537, Metabolic Activation: RAT, LIVER, S-9, PHENOBARBITAL AND 5,6-BENZOFLAVONE, Method: GAS EXPOSURE): inactive; negative
- mutagenic call (Test System: E. COLI, Strain/Indicator: WP2 UVRA, Metabolic Activation: NONE, Method: GAS EXPOSURE): inactive; negative
- mutagenic call (Test System: E. COLI, Strain/Indicator: WP2 UVRA, Metabolic Activation: RAT, LIVER, S-9, PHENOBARBITAL AND 5,6-BENZOFLAVONE, Method: GAS EXPOSURE): active; positive
- mutagenic call (Test System: E.COLI, Strain/Indicator: WP2UVRA, Metabolic Activation: NONE, Method: GAS EXPOSURE): inactive; negative
- mutagenic call (Test System: E.COLI, Strain/Indicator: WP2UVRA, Metabolic Activation: RAT LIVER S-9, PHENOBARBITAL AND BETA-NAPHTHOFLAVONE, Method: GAS EXPOSURE): active; positive

SMILES: COc1ccc(CNC(=O)C(C)Br)cc1OC (configuration not stated)
- mutagenic call [4]: active; positive

SMILES: CNc1ccc2nc(C)cnc2c1C
- mutagenic call [1]: inactive; negative
- mutagenic call (Test System: AMES SALMONELLA TYPHIMURIUM, Strain/Indicator: TA98, Metabolic Activation: RAT, LIVER, S-9, PCB, Method: PREINCUBATION): active; positive
- mutagenic call [2]: inactive; negative
- mutagenic call (Test System: AMES SALMONELLA TYPHIMURIUM, Strain/Indicator: TA100, Metabolic Activation: RAT, LIVER, S-9, PCB, Method: PREINCUBATION): active; positive

SMILES: O=C1NC(=O)C(C(Cl)Cl)=C1Cl
- mutagenic call [4]: active; positive

SMILES: O=c1c(=O)c2cc3ccccc3c3ccc4cccc1c4c23
- mutagenic call [5]: active; positive

SMILES: COC(=O)c1cc2c(c3c1ccc1c(OC)cccc13)OCO2
- mutagenic call [6]: active; positive
- mutagenic call [4]: active; positive
- mutagenic call (Test System: AMES SALMONELLA TYPHIMURIUM, Strain/Indicator: TA102, Metabolic Activation: NONE, Method: STANDARD PLATE): active; positive
- mutagenic call [7]: active; positive
- mutagenic call (Test System: AMES SALMONELLA TYPHIMURIUM, Strain/Indicator: TM677/8-AZAGUANINE, Metabolic Activation: NONE, Method: SUSPENSION/PLATE): inactive; negative

SMILES: CCN=C=S
- mutagenic call [8]: inactive; negative
- mutagenic call (Test System: AMES SALMONELLA TYPHIMURIUM, Strain/Indicator: TA97, Metabolic Activation: RAT, LIVER, S-9, AROCLOR 1254, Method: PREINCUBATION): inactive; negative
- mutagenic call (Test System: AMES SALMONELLA TYPHIMURIUM, Strain/Indicator: TA102, Metabolic Activation: NONE, Method: PREINCUBATION): inactive; negative
- mutagenic call (Test System: AMES SALMONELLA TYPHIMURIUM, Strain/Indicator: TA102, Metabolic Activation: RAT, LIVER, S-9, AROCLOR 1254, Method: PREINCUBATION): inactive; negative

SMILES: C=CCc1ccccc1OCC(O)CNC(C)C (configuration not stated)
- mutagenic call [6]: inactive; negative
- mutagenic call (Test System: AMES SALMONELLA TYPHIMURIUM, Strain/Indicator: TA98, Metabolic Activation: RAT, LIVER, S-9, AROCLOR 1254, Method: STANDARD PLATE): inactive; negative
- mutagenic call [4]: inactive; negative
- mutagenic call [5]: inactive; negative

SMILES: Cc1c(C)c2c(Cl)c3ccccc3nc2c2ccccc12
- mutagenic call [8]: active; positive
- mutagenic call (Test System: AMES SALMONELLA TYPHIMURIUM, Strain/Indicator: TA97, Metabolic Activation: NONE, Method: STANDARD PLATE): active; positive
- mutagenic call [1]: active; positive
- mutagenic call [3]: active; positive

SMILES: O=[N+]([O-])c1ccc2nscc2c1
- mutagenic call [6]: active; positive
- mutagenic call (Test System: AMES SALMONELLA TYPHIMURIUM, Strain/Indicator: TA98, Metabolic Activation: S-9, Method: STANDARD PLATE): active; positive
- mutagenic call [4]: active; positive
- mutagenic call (Test System: AMES SALMONELLA TYPHIMURIUM, Strain/Indicator: TA100, Metabolic Activation: S-9, Method: STANDARD PLATE): active; positive
- mutagenic call (Test System: AMES SALMONELLA TYPHIMURIUM, Strain/Indicator: TA1535, Metabolic Activation: NONE, Method: STANDARD PLATE): active; positive
- mutagenic call (Test System: AMES SALMONELLA TYPHIMURIUM, Strain/Indicator: TA1535, Metabolic Activation: S-9, Method: STANDARD PLATE): active; positive
- mutagenic call [7]: active; positive
- mutagenic call (Test System: AMES SALMONELLA TYPHIMURIUM, Strain/Indicator: TA1537, Metabolic Activation: S-9, Method: STANDARD PLATE): active; positive

SMILES: O=CN(O)c1ccc2ccccc2c1
- mutagenic call [1]: active; positive
- mutagenic call (Test System: AMES SALMONELLA TYPHIMURIUM, Strain/Indicator: TA98, Metabolic Activation: RAT, LIVER, CYTOSOL, Method: PREINCUBATION): active; positive
- mutagenic call (Test System: AMES SALMONELLA TYPHIMURIUM, Strain/Indicator: TA98, Metabolic Activation: RAT, LIVER, MICROSOMES, Method: PREINCUBATION): active; positive
